Values of other authors as cited in PMC9851200, “Multiparameter phenotypic screening for endogenous TFEB and TFE3 translocation identifies novel chemical series modulating lysosome function” (Autophagy, 2022).

Columns and labels:
Parameters in all cases: method as in original PKIS2 published data
[1] = target: kinases (KINOMEscan panel) (Homo sapiens, UniProt Q9H1R3); conditions: MYLK2; Published KINOMEscan; ref original PKIS2 published data; cited from earlier work
[2] = target: kinases (KINOMEscan panel) (Homo sapiens, UniProt Q13555); conditions: CAMK2G; Published KINOMEscan; ref original PKIS2 published data; cited from earlier work
Chain of kinases (KINOMEscan panel) (Homo sapiens, UniProt Q13555) (Q13555 whole entry): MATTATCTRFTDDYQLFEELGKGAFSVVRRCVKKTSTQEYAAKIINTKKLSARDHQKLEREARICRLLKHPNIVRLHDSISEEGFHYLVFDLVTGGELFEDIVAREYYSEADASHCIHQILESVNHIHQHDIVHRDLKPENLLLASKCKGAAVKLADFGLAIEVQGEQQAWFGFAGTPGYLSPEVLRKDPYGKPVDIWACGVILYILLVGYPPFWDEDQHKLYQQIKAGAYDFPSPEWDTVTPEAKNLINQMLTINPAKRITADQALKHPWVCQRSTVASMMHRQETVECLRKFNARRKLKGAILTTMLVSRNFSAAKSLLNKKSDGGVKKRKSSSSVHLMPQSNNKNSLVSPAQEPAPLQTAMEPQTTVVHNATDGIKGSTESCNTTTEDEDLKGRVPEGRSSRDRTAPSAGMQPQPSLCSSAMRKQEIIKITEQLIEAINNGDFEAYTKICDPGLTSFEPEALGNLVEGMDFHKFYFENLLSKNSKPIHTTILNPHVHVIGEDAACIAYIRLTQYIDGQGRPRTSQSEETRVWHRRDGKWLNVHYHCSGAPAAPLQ

[3] = target: kinases (KINOMEscan panel) (Homo sapiens, UniProt Q9NYY3); conditions: PLK2; Published KINOMEscan; ref original PKIS2 published data; cited from earlier work
Chain of kinases (KINOMEscan panel) (Homo sapiens, UniProt Q9NYY3) (Q9NYY3 whole entry): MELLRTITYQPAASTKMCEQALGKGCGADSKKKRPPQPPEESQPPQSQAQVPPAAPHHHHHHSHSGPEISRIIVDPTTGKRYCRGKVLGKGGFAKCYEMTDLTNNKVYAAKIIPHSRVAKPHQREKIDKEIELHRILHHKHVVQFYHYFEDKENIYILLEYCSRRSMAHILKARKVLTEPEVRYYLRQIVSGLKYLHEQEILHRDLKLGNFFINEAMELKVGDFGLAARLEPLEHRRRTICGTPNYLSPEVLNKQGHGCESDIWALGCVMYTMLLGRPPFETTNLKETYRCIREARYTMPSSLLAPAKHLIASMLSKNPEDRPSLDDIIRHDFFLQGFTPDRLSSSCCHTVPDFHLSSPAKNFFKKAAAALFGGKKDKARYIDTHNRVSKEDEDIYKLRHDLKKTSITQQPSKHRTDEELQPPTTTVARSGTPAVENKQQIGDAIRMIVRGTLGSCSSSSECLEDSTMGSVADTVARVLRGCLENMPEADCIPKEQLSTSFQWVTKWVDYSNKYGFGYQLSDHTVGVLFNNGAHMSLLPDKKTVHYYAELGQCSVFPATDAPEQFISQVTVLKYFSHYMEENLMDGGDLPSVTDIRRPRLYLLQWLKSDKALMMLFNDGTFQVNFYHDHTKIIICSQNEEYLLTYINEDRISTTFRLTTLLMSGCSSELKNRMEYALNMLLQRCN

[4] = target: T1, kinases (KINOMEscan panel) (Homo sapiens, UniProt O14976); conditions: kinase GAK; Published KINOMEscan; ref original PKIS2 published data; cited from earlier work
T1 sequence (O14976 1-1311): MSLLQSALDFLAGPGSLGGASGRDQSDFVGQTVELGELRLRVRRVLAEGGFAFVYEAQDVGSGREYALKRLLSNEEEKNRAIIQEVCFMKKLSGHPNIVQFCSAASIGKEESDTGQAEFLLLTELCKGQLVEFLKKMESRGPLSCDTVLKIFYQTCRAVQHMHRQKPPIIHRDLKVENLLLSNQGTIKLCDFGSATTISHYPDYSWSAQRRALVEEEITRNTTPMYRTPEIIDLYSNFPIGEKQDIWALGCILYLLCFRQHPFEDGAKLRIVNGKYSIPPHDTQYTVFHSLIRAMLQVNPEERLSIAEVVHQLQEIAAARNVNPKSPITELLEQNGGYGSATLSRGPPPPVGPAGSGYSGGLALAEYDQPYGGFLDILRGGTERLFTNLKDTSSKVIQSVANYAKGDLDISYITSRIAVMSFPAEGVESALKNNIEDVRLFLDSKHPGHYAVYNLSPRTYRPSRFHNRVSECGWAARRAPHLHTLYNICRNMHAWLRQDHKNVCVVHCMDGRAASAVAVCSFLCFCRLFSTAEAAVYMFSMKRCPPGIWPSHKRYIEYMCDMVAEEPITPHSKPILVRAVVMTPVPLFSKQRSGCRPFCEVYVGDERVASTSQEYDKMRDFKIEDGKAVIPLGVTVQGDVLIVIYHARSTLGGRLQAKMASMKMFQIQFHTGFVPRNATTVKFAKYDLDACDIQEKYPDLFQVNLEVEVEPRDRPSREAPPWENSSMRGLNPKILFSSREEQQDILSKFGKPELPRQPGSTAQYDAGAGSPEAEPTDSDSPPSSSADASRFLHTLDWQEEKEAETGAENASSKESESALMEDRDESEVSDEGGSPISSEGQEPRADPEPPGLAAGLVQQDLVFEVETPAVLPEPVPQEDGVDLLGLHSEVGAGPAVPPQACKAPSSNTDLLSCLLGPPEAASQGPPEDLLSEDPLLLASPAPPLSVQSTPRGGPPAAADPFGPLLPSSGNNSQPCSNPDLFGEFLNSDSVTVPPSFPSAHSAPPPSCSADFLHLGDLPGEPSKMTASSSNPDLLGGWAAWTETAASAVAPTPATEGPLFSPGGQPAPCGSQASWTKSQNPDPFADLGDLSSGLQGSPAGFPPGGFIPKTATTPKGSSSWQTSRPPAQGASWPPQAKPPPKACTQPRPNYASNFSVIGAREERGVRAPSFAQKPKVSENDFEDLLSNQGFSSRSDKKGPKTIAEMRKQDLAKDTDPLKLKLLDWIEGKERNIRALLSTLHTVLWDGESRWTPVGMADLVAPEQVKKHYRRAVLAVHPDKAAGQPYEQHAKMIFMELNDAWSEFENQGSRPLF

[5] = target: T2, kinases (KINOMEscan panel) (Homo sapiens, UniProt Q9UHD2); conditions: TBK1; Published KINOMEscan; ref original PKIS2 published data; cited from earlier work
T2 sequence (Q9UHD2 1-729): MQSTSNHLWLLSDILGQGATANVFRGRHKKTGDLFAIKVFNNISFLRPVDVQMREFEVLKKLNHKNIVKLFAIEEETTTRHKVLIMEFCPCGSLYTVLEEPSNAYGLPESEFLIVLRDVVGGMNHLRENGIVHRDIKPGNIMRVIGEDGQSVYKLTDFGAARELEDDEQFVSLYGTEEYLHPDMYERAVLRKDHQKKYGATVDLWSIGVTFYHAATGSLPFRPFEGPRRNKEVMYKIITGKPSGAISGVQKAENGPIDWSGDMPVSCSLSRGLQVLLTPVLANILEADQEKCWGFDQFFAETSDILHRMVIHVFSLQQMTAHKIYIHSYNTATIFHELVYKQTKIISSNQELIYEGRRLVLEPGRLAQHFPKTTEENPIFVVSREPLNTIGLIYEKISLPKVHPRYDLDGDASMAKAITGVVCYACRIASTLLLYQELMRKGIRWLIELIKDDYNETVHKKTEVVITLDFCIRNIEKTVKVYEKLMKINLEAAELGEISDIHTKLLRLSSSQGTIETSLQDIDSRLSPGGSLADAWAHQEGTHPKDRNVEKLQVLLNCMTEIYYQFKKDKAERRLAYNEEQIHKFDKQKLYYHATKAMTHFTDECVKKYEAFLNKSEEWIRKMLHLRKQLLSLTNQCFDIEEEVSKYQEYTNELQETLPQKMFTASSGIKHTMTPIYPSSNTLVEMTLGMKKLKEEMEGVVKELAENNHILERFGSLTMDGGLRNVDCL

[6] = target: kinases (KINOMEscan panel) (Homo sapiens, UniProt Q8TDR2); conditions: STK35; Published KINOMEscan; ref original PKIS2 published data; cited from earlier work
Chain of kinases (KINOMEscan panel) (Homo sapiens, UniProt Q8TDR2) (Q8TDR2 whole entry): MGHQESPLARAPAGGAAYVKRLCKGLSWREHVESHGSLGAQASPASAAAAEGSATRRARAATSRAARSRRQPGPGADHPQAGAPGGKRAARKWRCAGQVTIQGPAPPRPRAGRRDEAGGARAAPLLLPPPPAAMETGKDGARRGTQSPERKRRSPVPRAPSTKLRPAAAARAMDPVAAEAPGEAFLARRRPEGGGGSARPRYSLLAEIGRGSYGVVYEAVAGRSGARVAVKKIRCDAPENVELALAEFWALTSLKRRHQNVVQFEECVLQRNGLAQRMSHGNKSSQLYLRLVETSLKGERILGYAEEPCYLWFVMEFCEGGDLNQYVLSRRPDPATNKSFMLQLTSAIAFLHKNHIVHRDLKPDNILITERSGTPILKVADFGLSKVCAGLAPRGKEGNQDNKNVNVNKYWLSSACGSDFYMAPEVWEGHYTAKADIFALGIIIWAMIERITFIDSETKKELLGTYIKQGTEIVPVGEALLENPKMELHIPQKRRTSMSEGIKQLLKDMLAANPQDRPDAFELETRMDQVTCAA

[7] = target: kinases (KINOMEscan panel) (Homo sapiens, UniProt Q16584); conditions: kinase MAP3K11; Published KINOMEscan; ref original PKIS2 published data; cited from earlier work
Chain of kinases (KINOMEscan panel) (Homo sapiens, UniProt Q16584) (Q16584 whole entry): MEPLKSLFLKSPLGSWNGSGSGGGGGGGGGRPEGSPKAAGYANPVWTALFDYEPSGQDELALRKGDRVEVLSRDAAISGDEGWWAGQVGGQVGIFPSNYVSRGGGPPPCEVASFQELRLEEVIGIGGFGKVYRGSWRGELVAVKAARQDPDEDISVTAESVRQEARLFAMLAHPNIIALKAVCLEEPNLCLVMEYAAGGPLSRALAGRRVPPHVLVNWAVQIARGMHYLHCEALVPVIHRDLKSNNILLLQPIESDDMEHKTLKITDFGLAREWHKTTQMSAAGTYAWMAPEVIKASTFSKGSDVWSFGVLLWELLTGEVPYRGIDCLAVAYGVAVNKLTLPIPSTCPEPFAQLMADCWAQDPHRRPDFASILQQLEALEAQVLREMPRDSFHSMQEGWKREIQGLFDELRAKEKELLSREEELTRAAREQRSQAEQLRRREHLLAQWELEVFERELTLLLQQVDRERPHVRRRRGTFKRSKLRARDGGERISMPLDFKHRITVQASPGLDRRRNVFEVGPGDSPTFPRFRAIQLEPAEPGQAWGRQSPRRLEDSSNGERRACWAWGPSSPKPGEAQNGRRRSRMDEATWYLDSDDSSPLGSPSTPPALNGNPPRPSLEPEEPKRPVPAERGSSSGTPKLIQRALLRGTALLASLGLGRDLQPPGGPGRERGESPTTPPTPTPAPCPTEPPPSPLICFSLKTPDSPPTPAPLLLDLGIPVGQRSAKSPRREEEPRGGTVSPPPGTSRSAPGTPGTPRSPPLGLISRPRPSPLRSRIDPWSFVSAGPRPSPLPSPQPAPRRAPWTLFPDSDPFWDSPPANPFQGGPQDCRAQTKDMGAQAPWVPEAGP

Chain of kinases (KINOMEscan panel) (Homo sapiens, UniProt Q9H1R3) (Q9H1R3 whole entry): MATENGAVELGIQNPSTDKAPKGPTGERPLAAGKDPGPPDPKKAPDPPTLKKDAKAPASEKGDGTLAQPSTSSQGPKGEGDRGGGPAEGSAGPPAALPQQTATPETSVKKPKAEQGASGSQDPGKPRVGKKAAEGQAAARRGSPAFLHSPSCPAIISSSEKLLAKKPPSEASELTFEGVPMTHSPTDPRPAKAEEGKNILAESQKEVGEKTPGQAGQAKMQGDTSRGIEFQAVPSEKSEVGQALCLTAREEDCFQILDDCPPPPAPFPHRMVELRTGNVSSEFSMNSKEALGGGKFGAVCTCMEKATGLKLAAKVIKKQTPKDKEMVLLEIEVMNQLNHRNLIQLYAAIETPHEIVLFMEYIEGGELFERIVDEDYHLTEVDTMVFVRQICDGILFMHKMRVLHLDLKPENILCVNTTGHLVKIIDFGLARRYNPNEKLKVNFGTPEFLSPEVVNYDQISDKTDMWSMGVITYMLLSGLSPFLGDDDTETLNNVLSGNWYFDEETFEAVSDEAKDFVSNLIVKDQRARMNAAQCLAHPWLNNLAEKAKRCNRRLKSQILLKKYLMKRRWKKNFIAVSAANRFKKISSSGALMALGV

Cc1cccc(-c2nc(Nc3ccncc3)c3ccccc3n2)n1 [NK215]
KINOMEscan MYLK2 [1]: 7
KINOMEscan CAMK2G [2]: 0
KINOMEscan PLK2 [3]: 0
KINOMEscan GAK [4]: 0
KINOMEscan TBK1 [5]: 41
KINOMEscan STK35 [6]: 0
KINOMEscan MAP3K11 [7]: 6
